Where a name gives a salt, the structure may show the parent alone.
tested on: Frataxin (FXN) mRNA; assay: Effect of HDAC inhibitors on frataxin (FXN) mRNA expression, qRT-PCR in compound-treated iPSC derived neuronal cells; format: cell-based; conditions: iPSC, 24 h, compound concentration of 0.625 μM, 24 h incubation, read-out: FXN mRNA fold induction
Procedure: Effect of HDAC Inhibitors on Frataxin (FXN) mRNA Expression
Method: mRNA quantification of compound-treated iPSC derived neuronal cells Neuronal stem cells were cultured in Neurobasal A medium (Life technologies #10888022) supplemented with N2, B27 (Life technologies #17502-048 and #17504-044), L-glutamine (Life technologies #25030081), supplemented with 20 ng/ml EGF (R&D Systems #236-EG) and 20 ng/ml bFGF (BioPioneer # HRP-0011). Neuronal differentiation was initiated by removing growth factors and culturing cells in Neurobasal A with N2 and B27. Cells were allowed to differentiate for 16 days. HDAC inhibitory compound was then added and incubate for 24 h. RNA isolation was performed using the RNeasy Plus mini kit (QIAgen #74134) using a QIAcube instrument per manufacturer's instructions. qRT-PCR was performed using qScript One-Step SYBR Green qRT-PCR Kit (Quanta Biosciences 170-8893BR) with the following conditions: 20 minutes at 50° C., 5 minutes at 95° C., and then 40 cycles of 20 seconds at 95° C., 20 seconds at 55° C., 30 seconds at 72° C. The primer sequences to detect expression of FXN were: 5′-[…]-3′ and 5′-[…]-3′.
The data for the following compounds, for FXN mRNA fold induction at a compound concentration of 0.625 μM are shown in Table 1, where A<1, 1<B<2, 2<C<3, 3<D<5, E>5.

SMILES	fold induction at 0.625 µM
Nc1ccccc1NC(=O)c1ccc(O[C@H]2CCN(CC3CC3)C2)cc1 [Compound 54, (S)-N-(2-aminophenyl)-4-((1-(cyclopropylmethyl)pyrrolidin-3-yl)oxy)benzamide dihydrochloride]	1 to 2
CC1(CN2CC[C@H](Oc3ccc(C(=O)Nc4ccccc4N)cc3)C2)CC1 [Compound 55, (S)-N-(2-aminophenyl)-4-((1-((1-methylcyclopropyl)methyl)pyrrolidin-3-yl)oxy)benzamide dihydrochloride]	2 to 3
Nc1ccccc1NC(=O)c1ccc(O[C@H]2CCN(CC3CCCCC3)C2)cc1 [Compound 56, (S)-N-(2-aminophenyl)-4-((1-(cyclohexylmethyl)pyrrolidin-3-yl)oxy)benzamide dihydrochloride]	2 to 3
Nc1ccccc1NC(=O)c1ccc(O[C@@H]2CCNC2)cc1 [Compound 57, (R)-N-(2-aminophenyl)-4-(pyrrolidin-3-yloxy)benzamide hydrochloride]	2 to 3
CN1CC[C@@H](Oc2ccc(C(=O)Nc3ccccc3N)cc2)C1 [Compound 58, (R)-N-(2-aminophenyl)-4-((1-methylpyrrolidin-3-yl)oxy)benzamide]	2 to 3
CC(C)CN1CC[C@@H](Oc2ccc(C(=O)Nc3ccccc3N)cc2)C1 [Compound 59, (R)-N-(2-aminophenyl)-4-((1-isobutylpyrrolidin-3-yl)oxy)benzamide dihydrochloride]	1 to 2
CC(C)(O)CN1CC[C@@H](Oc2ccc(C(=O)Nc3ccccc3N)cc2)C1 [Compound 60, (R)-N-(2-aminophenyl)-4-((1-(2-hydroxy-2-methylpropyl)pyrrolidin-3-yl)oxy)benzamide dihydrochloride]	1 to 2
CC(C)(C)CN1CC[C@@H](Oc2ccc(C(=O)Nc3ccccc3N)cc2)C1 [Compound 61, (R)-N-(2-aminophenyl)-4-((1-neopentylpyrrolidin-3-yl)oxy)benzamide]	1 to 2
Nc1ccccc1NC(=O)c1ccc(O[C@@H]2CCN(CC3CC3)C2)cc1 [Compound 62, (R)-N-(2-aminophenyl)-4-((1-(cyclopropylmethyl)pyrrolidin-3-yl)oxy)benzamide dihydrochloride]	1 to 2
CC1(CN2CC[C@@H](Oc3ccc(C(=O)Nc4ccccc4N)cc3)C2)CC1 [Compound 63, (R)-N-(2-aminophenyl)-4-((1-((1-methylcyclopropyl)methyl)pyrrolidin-3-yl)oxy)benzamide dihydrochloride]	2 to 3
Nc1ccccc1NC(=O)c1ccc(O[C@@H]2CCN(CC3CCCCC3)C2)cc1 [Compound 64, (R)-N-(2-aminophenyl)-4-((1-(cyclohexylmethyl)pyrrolidin-3-yl)oxy)benzamide dihydrochloride]	2 to 3
Nc1ccccc1NC(=O)c1ccc(OC2CCNCC2)cc1 [Compound 65, N-(2-aminophenyl)-4-(piperidin-4-yloxy)benzamide hydrochloride]	2 to 3
CN1CCC(Oc2ccc(C(=O)Nc3ccccc3N)cc2)CC1 [Compound 66, N-(2-aminophenyl)-4-((1-methylpiperidin-4-yl)oxy)benzamide dihydrochloride]	1 to 2
CC(C)CN1CCC(Oc2ccc(C(=O)Nc3ccccc3N)cc2)CC1 [Compound 67, N-(2-aminophenyl)-4-((1-isobutylpiperidin-4-yl)oxy)benzamide dihydrochloride]	1 to 2
CC1(CN2CCC(Oc3ccc(C(=O)Nc4ccccc4N)cc3)CC2)CC1 [Compound 68, N-(2-aminophenyl)-4-((1-((1-methylcyclopropyl)methyl)piperidin-4-yl)oxy)benzamide dihydrochloride]	1 to 2
Nc1ccccc1NC(=O)c1ccc(OC2CCN(CC3CCCCC3)CC2)cc1 [Compound 69, N-(2-aminophenyl)-4-((1-(cyclohexylmethyl)piperidin-4-yl)oxy)benzamide dihydrochloride]	1 to 2
Nc1ccccc1NC(=O)c1ccc(OC2CC3CCC(C2)N3)cc1 (centres unmarked) [Compound 70, 4-((8-azabicyclo[3.2.1]octan-3-yl)oxy)-N-(2-aminophenyl)benzamide hydrochloride]	1 to 2
Nc1ccccc1NC(=O)c1ccc(NC2CCCNCC2)cc1 (centres unmarked) [Compound 78, N-(2-aminophenyl)-4-(azepan-4-ylamino)benzamide tris(2,2,2-trifluoroacetate)]	2 to 3
CC(C)CN1CCCC(Nc2ccc(C(=O)Nc3ccccc3N)cc2)CC1 (centres unmarked) [Compound 80, N-(2-aminophenyl)-4-((1-isobutylazepan-4-yl)amino)benzamide]	2 to 3
CC(C)(O)CN1CCCC(Nc2ccc(C(=O)Nc3ccccc3N)cc2)CC1 (centres unmarked) [Compound 81, N-(2-aminophenyl)-4-((1-(2-hydroxy-2-methylpropyl)azepan-4-yl)amino)benzamide trihydrochloride]	1 to 2
Nc1ccccc1NC(=O)c1ccc(NC2CCCN(CC3CC3)CC2)cc1 (centres unmarked) [Compound 83, N-(2-aminophenyl)-4-((1-(cyclopropylmethyl)azepan-4-yl)amino)benzamide trihydrochloride]	2 to 3
Nc1ccccc1NC(=O)c1ccc(NC2CCCN(CC3CCCCC3)CC2)cc1 (centres unmarked) [Compound 85, N-(2-aminophenyl)-4-((1-(cyclohexylmethyl)azepan-4-yl)amino)benzamide]	2 to 3

same assay, conditions: iPSC, 24 h, read-out: FXN mRNA fold induction, compound concentration of 0.625 μM, 24 h incubation

SMILES	fold induction at 0.625 µM
CN1C2CCC1CC(Oc1ccc(C(=O)Nc3ccccc3N)cc1)C2 (centres unmarked) [Compound 71, N-(2-aminophenyl)-4-((8-methyl-8-azabicyclo[3.2.1]octan-3-yl)oxy)benzamide dihydrochloride]	1 to 2
CC(C)CN1C2CCC1CC(Oc1ccc(C(=O)Nc3ccccc3N)cc1)C2 (centres unmarked) [Compound 72, N-(2-aminophenyl)-4-((8-isobutyl-8-azabicyclo[3.2.1]octan-3-yl)oxy)benzamide dihydrochloride]	1 to 2
CC(C)(O)CN1C2CCC1CC(Oc1ccc(C(=O)Nc3ccccc3N)cc1)C2 (centres unmarked) [Compound 73, N-(2-aminophenyl)-4-((8-(2-hydroxy-2-methylpropyl)-8-azabicyclo[3.2.1]octan-3-yl)oxy)benzamide dihydrochloride]	1 to 2
CC(C)(C)CN1C2CCC1CC(Oc1ccc(C(=O)Nc3ccccc3N)cc1)C2 (centres unmarked) [Compound 74, N-(2-aminophenyl)-4-((8-neopentyl-8-azabicyclo[3.2.1]octan-3-yl)oxy)benzamide dihydrochloride]	1 to 2
Nc1ccccc1NC(=O)c1ccc(OC2CC3CCC(C2)N3CC2CC2)cc1 (centres unmarked) [Compound 75, N-(2-aminophenyl)-4-((8-(cyclopropylmethyl)-8-azabicyclo[3.2.1]octan-3-yl)oxy)benzamide dihydrochloride]	1 to 2
CC1(CN2C3CCC2CC(Oc2ccc(C(=O)Nc4ccccc4N)cc2)C3)CC1 (centres unmarked) [Compound 76, N-(2-aminophenyl)-4-((8-((1-methylcyclopropyl)methyl)-8-azabicyclo[3.2.1]octan-3-yl)oxy)benzamide dihydrochloride]	2 to 3
Nc1ccccc1NC(=O)c1ccc(OC2CC3CCC(C2)N3CC2CCCCC2)cc1 (centres unmarked) [Compound 77, N-(2-aminophenyl)-4-((8-(cyclohexylmethyl)-8-azabicyclo[3.2.1]octan-3-yl)oxy)benzamide dihydrochloride]	1 to 2
